Results as given in paper PMC9400670, “Establishing the selective phospholipid membrane coordination, permeation and lysis properties for a series of ‘druggable’ supramolecular self-associating antimicrobial amphiphiles” (Chemical Science, 2022).

Test: Mouse plasma protein binding (rapid equilibrium dialysis) with plasma stability
Type: in vitro ADME
Conditions: for recovery at 4 h, 2 µM: mouse plasma, read-out: Recovery (PPB assay); for fraction unbound at 4 h, 2 µM: PPB
Procedure: page 7: Section 4: DMPK Methods and Further Discussion Materials used for DMPK studies: Sprague Dawley rat liver microsomes (male, 771 donors, Lot 1910100), CD-1 mouse liver microsomes (male, 6424 donors, Lot 2010017) and human liver microsomes (mixed gender,50 donors, Lot 1810003) were purchased from Sekisui Xenotech (Kansas City, USA). Microsomal incubations: SSA 1-6 and 10 (final concentration 1 µM) were pre-incubated for 10 min in mouse, rat, or human liver microsomes (final concentration 0.5 mg/mL prepared in 100 mM potassium phosphate buffered saline (PBS)) at 37°C. The reaction was initiated with the addition of the cofactor, NADPH-generating system. The NADPH-generating system consisted of NADP (1.3 mM, pH 7.4), glucose-6-phosphate (3.3 mM, pH 7.4), glucose-6-phosphate dehydrogenase (0.4 unit/mL) and MgCl2 (3.3 mM). The reaction was allowed to proceed for 45 min. At 0, 5, 10, 15, 30, and 45 min aliquots were sampled and quenched in ice cold acetonitrile with internal standard. Incubations were conducted in singlicate; control incubations (substituting PBS for NADPH) were conducted simultaneously. All control incubations were within acceptance criteria in mouse, rat, and human microsomes confirming stability was acceptable over 45 minutes in the absence of co-factor. Protein Binding studies: The fraction unbound in mouse plasma (BioIVT, Frankfurt Am Main, Germany) of SSA 1-6 and 10 were measured using a Rapid Equilibrium Dialysis device (Thermo Fisher Scientific, Loughborough, UK). Mouse plasma containing 2 µM of SSA 1-6 and 10 were dialysed against 100 mM PBS for 4h at 37°C at 5% CO2. Samples were removed, matrix matched and quenched with acetonitrile containing internal standard; further processing is described in: Sample preparation and liquid chromatography-mass spectrometry analysis. Caco-2 Permeability studies: The permeability assay for SSA 1-6 and 10 was performed at Cyprotex Discovery Limited (Macclesfield, UK) and analysed at Cancer Research Horizons. SSA 1-6 and 10 were incubated at a final concentration of 10 uM with human intestinal Caco-2 cells at 37°C, 5% CO2 with a relative humidity of 95%. After 120 minutes the apical compartment inserts and the companion plates were separated, and the apical and basolateral samples were transferred. Incubations were conducted in duplicate and the fluorescent membrane integrity marker; Lucifer Yellow was co- incubated with the SSA compounds at the start of the assay. Compounds of known permeability were used as controls and were within acceptance criteria. Further processing is described in: Sample preparation and liquid chromatography-mass spectrometry analysis. Sample preparation and liquid chromatography-mass spectrometry analysis: All samples were centrifuged at 3500 rpm at 4°C for 10 min to precipitate protein and enable sampling of supernatant prior to appropriate dilution for liquid chromatography-mass spectrometry (LC-MS/MS analysis). For the purpose of CLINT determination, samples were analysed using a Waters I-Class ultra-high- performance liquid chromatography (UHPLC) system coupled to a Waters Xevo TQ-XS mass spectrometer (Waters, Elstree, UK). Separation of analytes was achieved using an Accucore Vanquish C18+ column (1.5 µm, 50 x 2.1 mm) (Thermo Fisher Scientific, Hemel Hempstead) at a temperature of 40°C and a binary mobile phase gradient at a flow rate of 0.4 mL/min. Initial LC conditions comprised 95% solvent A (0.1% formic acid + 5 mM ammonium acetate in water), 5% solvent B (0.1% formic acid + 5 mM ammonium acetate in acetonitrile); this was ramped to 90% B at 5 min, and then immediately returned to initial conditions and held for the remaining 0.5 min of the method. Sample analysis was by electrospray ionisation combined with multiple reaction monitoring in negative ion mode. […]

[1] = mouse, % SSA recovered from the assay after 4 hours

Plasma stability (mouse, 4 h, 2 µM) [%]	recovery at 4 h, 2 µM [1] [%]	PPB class (mouse, plasma)	fraction unbound at 4 h, 2 µM (mouse, plasma)	Recovery (PPB assay) (% SSA recovered from the assay after 4 hours) [%]	PPB (mouse, plasma, 4 h, 2 µM) [%]	SMILES
94	91	low	0.25			O=C(NCS(=O)(=O)O)Nc1ccc(C(F)(F)F)cc1 [SSA 1]
93	79		0.166			O=C(NCCCS(=O)(=O)O)Nc1ccc(C(F)(F)F)cc1 [SSA 2]
89				80	73.8	O=C(NCS(=O)(=O)O)Nc1ccc(C(F)(F)F)cc1 [SSA 3]
96	86	low	0.328			O=C(O)CNC(=O)Nc1ccc(C(F)(F)F)cc1 [SSA 4]
92	109	very high	< 0.003			O=C(NCS(=O)(=O)O)Nc1ccccc1-c1nc2ccccc2s1 [SSA 5]
90	101	very high	0.007			Cc1ccc2nc(-c3ccc(NC(=O)NCS(=O)(=O)O)cc3)sc2c1 [SSA 6]
89	94	very high	0.007			Cc1ccc2nc(-c3ccc(NC(=O)NCCCS(=O)(=O)O)cc3)sc2c1 [SSA 10]
